Measurements taken from paper PMC2692652 (Biochemistry, 2009).

Experiments:
[1] = tested on: M. tb PGDH; conditions: cited from earlier work
[2] = target: T1, Native M. tb PGDH (Mycobacterium tuberculosis, UniProt P9WNX3); format: biochemical; conditions: HPAP 400 μM, NADH varied, 200 mM potassium phosphate, pH 7.5
[3] = target: M. tb PGDH; assay: Transient binding of NADH to the enzyme in the absence of substrate; set-up: species or system Mycobacterium tuberculosis; conditions: read-out: Kd of NADH at the second (anion-binding) site; calculated from the rates of NADH binding determined in the absence of substrate
[4] = target: T1, Native M. tb PGDH; assay: Stopped-flow time course of NADH turnover with kinetic simulation to Scheme 2; format: biochemical; conditions: for k+i / k-i: from simulation
[5] = target: T1, Native M. tb PGDH; format: binding; conditions: no substrate, excitation 295 nm, fluorescence 420 nm, pH 7.5
[6] = tested on: M. tb PGDH; conditions: cited from earlier work; remark: listed apart in the source
[7] = target: Human PGDH (Homo sapiens, UniProt O43175); assay: Inhibition of human PGDH; format: biochemical; conditions: unpublished observation
Chain of Human PGDH (O43175 whole entry): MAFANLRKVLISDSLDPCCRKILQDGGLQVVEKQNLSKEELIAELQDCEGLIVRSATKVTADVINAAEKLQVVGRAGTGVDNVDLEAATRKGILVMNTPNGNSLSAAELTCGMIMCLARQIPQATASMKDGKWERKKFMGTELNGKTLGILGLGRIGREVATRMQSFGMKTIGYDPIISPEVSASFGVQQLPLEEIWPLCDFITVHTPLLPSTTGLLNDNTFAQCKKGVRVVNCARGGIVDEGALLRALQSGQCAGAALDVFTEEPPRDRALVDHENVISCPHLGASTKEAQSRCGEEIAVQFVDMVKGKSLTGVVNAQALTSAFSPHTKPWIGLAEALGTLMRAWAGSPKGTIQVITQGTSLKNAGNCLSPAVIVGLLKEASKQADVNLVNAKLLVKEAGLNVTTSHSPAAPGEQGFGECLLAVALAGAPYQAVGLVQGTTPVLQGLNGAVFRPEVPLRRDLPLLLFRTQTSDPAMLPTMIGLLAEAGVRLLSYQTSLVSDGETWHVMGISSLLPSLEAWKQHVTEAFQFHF

[8] = target: T1, Native M. tb PGDH; format: biochemical; conditions: high HPAP level where substrate inhibition is significant, pH 7.5
[9] = target: T1, Native M. tb PGDH; conditions: read-out: Ki, HPAP (substrate inhibition); cited from earlier work
[10] = step ES + N = ESN (NADH to active site)
[11] = step ES + N = NES (NADH to second site)
[12] = step ESN + N = NESN (NADH to second site)
[13] = step SES + N = SESN (NADH to active site)

T1 sequence (P9WNX3 whole entry): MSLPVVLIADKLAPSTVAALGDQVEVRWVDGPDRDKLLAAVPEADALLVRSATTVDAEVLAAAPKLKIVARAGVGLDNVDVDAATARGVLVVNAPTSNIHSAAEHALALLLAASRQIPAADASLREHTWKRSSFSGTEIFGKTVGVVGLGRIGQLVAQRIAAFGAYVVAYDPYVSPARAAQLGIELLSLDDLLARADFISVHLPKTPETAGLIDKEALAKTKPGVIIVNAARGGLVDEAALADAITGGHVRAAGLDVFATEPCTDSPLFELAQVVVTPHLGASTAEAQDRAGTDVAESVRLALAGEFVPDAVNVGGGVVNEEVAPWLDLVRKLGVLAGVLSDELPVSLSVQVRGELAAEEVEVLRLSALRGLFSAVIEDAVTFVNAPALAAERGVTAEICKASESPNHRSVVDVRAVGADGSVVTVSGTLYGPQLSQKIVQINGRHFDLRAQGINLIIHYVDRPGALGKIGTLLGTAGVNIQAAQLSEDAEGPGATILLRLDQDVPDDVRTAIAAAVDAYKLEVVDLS

O=C(O)C(O)C(O)C(=O)O (stereo not shown) [tartrate]
Effect of tartrate binding to the anion-binding site on rate of catalysis [1]: does not effect the rate of catalysis

NADH
K0.5, Activity vs NADH [2]: 106 ± 5 µM | n (Hill coefficient), Activity vs NADH [2]: 2.5 ± 0.2 | Kd [3]: ~600 nM | k+i [4, 10]: 409 µM⁻¹ s⁻¹ | k-i [4, 10]: 70 s⁻¹ | k+i [4, 11]: 0 µM⁻¹ s⁻¹ | k-i [4, 11]: 0 s⁻¹ | k+i [4, 12]: 0 µM⁻¹ s⁻¹ | k-i [4, 12]: 0 s⁻¹ | k+i ([4]; step NES + N = NESN (NADH to active site)): 759 µM⁻¹ s⁻¹ | k+i [4, 13]: 0.19 µM⁻¹ s⁻¹ | k-i [4, 13]: 3 s⁻¹ | K0.5, FRET vs NADH [5]: 3.2 ± 0.1 µM | n (Hill coefficient), FRET vs NADH [5]: 1.6 ± 0.1 | k+i [6]: 0.37 ^c μM^-1s^-1 | k-i [6]: 0.22 ^c s^-1

N[C@@H](CO)C(=O)O [L-serine]
Inhibition by L-serine [7]: not inhibited | n (Hill coefficient), serine inhibition, High Substrate [8]: 1.5 ± 0.1

hydroxypyruvic acid phosphate [HPAP]
Ki [9]: 950 ± 120 µM | Substrate inhibition by HPAP [7]: displays substrate inhibition | Kd ([4]; read-out: Kd for HPAP at the second (anion-binding) site): ~8 µM
